Experimental data as given in PubChem BioAssay (NCI).
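How tested: cells in 96-well plates exposed to compound for 48 hours at five concentrations. The concentration for 50% growth inhibition is given as GI50. The concentration for full growth arrest is given as TGI.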

Columns and labels:
Test in all cases: NCI-60 cell line screen, 48 h
[1] = tested on: 786-0 renal
[2] = tested on: A498 renal
[3] = tested on: A549 NSCLC
[4] = tested on: ACHN renal
[5] = tested on: BT-549 breast
[6] = tested on: CAKI-1 renal
[7] = tested on: CCRF-CEM leukemia
[8] = tested on: COLO 205 colon
[9] = tested on: DU-145 prostate
[10] = tested on: EKVX NSCLC
[11] = tested on: HCC-2998 colon
[12] = tested on: HCT-15 colon
[13] = tested on: HL-60(TB) leukemia
[14] = tested on: HOP-62 NSCLC
[15] = tested on: HOP-92 NSCLC
[16] = tested on: HS 578T breast
[17] = tested on: HT29 colon
[18] = tested on: IGROV1 ovarian
[19] = tested on: K-562 leukemia
[20] = tested on: KM12 colon
[21] = tested on: LOX IMVI melanoma
[22] = tested on: M14 melanoma
[23] = tested on: MALME-3M melanoma
[24] = tested on: MCF7 breast
[25] = tested on: MDA-MB-231 breast
[26] = tested on: MDA-MB-435
[27] = tested on: MOLT-4 leukemia
[28] = tested on: NCI-H226 lung
[29] = tested on: NCI-H23 lung
[30] = tested on: NCI-H460 lung
[31] = tested on: NCI-H522 lung
[32] = tested on: NCI/ADR-RES ovarian
[33] = tested on: OVCAR-3 ovarian
[34] = tested on: OVCAR-4 ovarian
[35] = tested on: OVCAR-5 ovarian
[36] = tested on: OVCAR-8 ovarian
[37] = tested on: PC-3 prostate
[38] = tested on: RPMI-8226 leukemia
[39] = tested on: SF-268 CNS
[40] = tested on: SF-295 CNS
[41] = tested on: SF-539 CNS
[42] = tested on: SK-MEL-2 melanoma
[43] = tested on: SK-MEL-28 melanoma
[44] = tested on: SK-MEL-5 melanoma
[45] = tested on: SK-OV-3 ovarian
[46] = tested on: SN12C renal
[47] = tested on: SNB-19 CNS
[48] = tested on: SR leukemia
[49] = tested on: SW-620 colon
[50] = tested on: T-47D breast
[51] = tested on: TK-10 renal
[52] = tested on: U251 CNS
[53] = tested on: UACC-257 melanoma
[54] = tested on: UACC-62 melanoma
[55] = tested on: UO-31 renal

With `Cc1ccc(S(=O)(=O)NCCCNc2nc(Nc3ccc(N4CCN(C)CC4)cc3)nc3ccsc23)cc1` the GI50 [1] was 1.77 µM, the TGI [1] was 3.42 µM and the GI50 [2] was 19.4 µM. It also gave a TGI [2] of 34.5 µM, a GI50 [3] of 14.9 µM and a TGI [3] of 31.5 µM. For the same compound, the GI50 [4] was 12 µM, the TGI [4] was 25.2 µM and the GI50 [5] was 3.56 µM. For the same compound, the TGI [5] was 16.4 µM, the GI50 [6] was 12.8 µM and the TGI [6] was 25.5 µM. The GI50 [7] was 2.73 µM, the TGI [7] was 22.9 µM and the GI50 [8] was 13.1 µM. For the same compound, the TGI [8] was 29.8 µM, the GI50 [9] was 16.4 µM and the TGI [9] was 40.6 µM. The GI50 [10] was 11.6 µM, the TGI [10] was 28.7 µM and the GI50 [11] was 5.34 µM. The TGI [11] was 17.8 µM, the GI50 [12] was 2.07 µM and the TGI [12] was 5.54 µM. It also gave a GI50 [13] of 2.01 µM, a TGI [13] of 5.18 µM and a GI50 [14] of 14.8 µM. It also gave a TGI [14] of 30.5 µM, a GI50 [15] of 1.94 µM and a TGI [15] of 11.6 µM. It also gave a GI50 [16] of 5.09 µM, a TGI [16] of 26.7 µM and a GI50 [17] of 4.4 µM. For the same compound, the TGI [17] was 18.4 µM, the GI50 [18] was 7.35 µM and the TGI [18] was 21.8 µM. The GI50 [19] was 2.56 µM, the TGI [19] was greater than 100 µM and the GI50 [20] was 14.3 µM. The TGI [20] was 47.9 µM, the GI50 [21] was 1.51 µM and the TGI [21] was 3.06 µM. It also gave a GI50 [22] of 1.6 µM, a TGI [22] of 3.13 µM and a GI50 [23] of 1.79 µM. It also gave a TGI [23] of 3.42 µM, a GI50 [24] of 3.52 µM and a TGI [24] of 13.8 µM. For the same compound, the GI50 [25] was 3.92 µM, the TGI [25] was 18.7 µM and the GI50 [26] was 9.14 µM. For the same compound, the TGI [26] was 21.3 µM, the GI50 [27] was 3.43 µM and the TGI [27] was 28.7 µM. For the same compound, the GI50 [28] was 8.46 µM, the TGI [28] was 21.8 µM and the GI50 [29] was 12.2 µM. It also gave a TGI [29] of 26.5 µM, a GI50 [30] of 13 µM and a TGI [30] of 27.8 µM. For the same compound, the GI50 [31] was 12.5 µM, the TGI [31] was 26.2 µM and the GI50 [32] was 15.5 µM. It also gave a TGI [32] of 41.9 µM, a GI50 [33] of 10.2 µM and a TGI [33] of 42.1 µM. It also gave a GI50 [34] of 10.3 µM, a TGI [34] of 44.2 µM and a GI50 [35] of 11.9 µM. It also gave a TGI [35] of 25.9 µM, a GI50 [36] of 10.9 µM and a TGI [36] of 29.7 µM. For the same compound, the GI50 [37] was 5.55 µM, the TGI [37] was 21.6 µM and the GI50 [38] was 2.5 µM. For the same compound, the TGI [38] was 8.04 µM, the GI50 [39] was 9.87 µM and the TGI [39] was 46 µM. The GI50 [40] was 9.03 µM, the TGI [40] was 21.6 µM and the GI50 [41] was 2.16 µM. For the same compound, the TGI [41] was 5.78 µM, the GI50 [42] was 15.1 µM and the TGI [42] was 29 µM. It also gave a GI50 [43] of 6.5 µM, a TGI [43] of 19.4 µM and a GI50 [44] of 12.9 µM. For the same compound, the TGI [44] was 25.6 µM, the GI50 [45] was 27.1 µM and the TGI [45] was 77.8 µM. For the same compound, the GI50 [46] was 13.6 µM, the TGI [46] was 28 µM and the GI50 [47] was 15.9 µM. It also gave a TGI [47] of 32.4 µM, a GI50 [48] of 2.84 µM and a TGI [48] greater than 100 µM. The GI50 [49] was 12.5 µM, the TGI [49] was 28 µM and the GI50 [50] was 13.3 µM. It also gave a TGI [50] of 37.2 µM, a GI50 [51] of 17.7 µM and a TGI [51] of 40.3 µM. For the same compound, the GI50 [52] was 3.83 µM, the TGI [52] was 18.7 µM and the GI50 [53] was 2.19 µM. It also gave a TGI [53] of 5.83 µM, a GI50 [54] of 11.5 µM and a TGI [54] of 23.6 µM. It also gave a GI50 [55] of 7.94 µM and a TGI [55] of 23.8 µM.
